Molecules are shown by their SMILES. pEC50: −log10 of the molar value.

This is an account of results in patent publication EP3597653A1, “CYCLIC INHIBITORS OF HEPATITIS B VIRUS” (IRBM S.P.A., priority 2018, dated 2020).

This assay deals with HBV. Kind of assay: HBV inhibition assay in HepAD38 cells (extracellular HBV DNA by direct qPCR). The assay is classed as cell-based. Conditions: Hepatitis B virus, 96 hours; for inhibition at 0.5 µM: compound at 0.5 µM; for pEC50: 8-point dose-response curve, read-out: HBV inh EC50; for inhibition at 1 µM: compound at 1 µM. Put shortly:
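HepAD38 cells (HepG2, tetracycline-off HBV) induced in tetracycline-free medium, treated 96 h at 37 °C with compound, 0.5% DMSO. Extracellular HBV DNA quantified by direct SYBR qPCR of lysed supernatant, as % of untreated; EC50 from 8-point 1:2 curves; cytotoxicity by CellTiter-Blue.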
Background: Quantitative PCR measures a nucleic acid by following its amplification.

[1] abbreviates: relative to non-treated reference, read-out: Anti HBV Activity (conc µM).

As to `CN1CC[C@H](N2C(=O)Nc3ccc(C(=O)Nc4cc(F)c(F)c(F)c4)cc3S2(=O)=O)C1` [Example E85, (S)-2-(1-methylpyrrolidin-3-yl)-3-oxo-N-(3,4,5-trifluorophenyl)-3,4-dihydro-2H-benzo[e][1,2,4]thiadiazine-7-carboxamide 1,1-dioxide], the inhibition at 0.1 µM (compound at 0.1 µM, relative to non-treated reference, read-out: Anti HBV Activity (conc µM)) was below 50%. As for `O=C(Nc1cc(F)c(F)c(F)c1)c1ccc2c(c1)S(=O)(=O)N(C1CC(O)C1)C(=O)N2` (stereo not drawn) [Example E86, 2-(3-hydroxycyclobutyl)-3-oxo-N-(3,4,5-trifluorophenyl)-3,4-dihydro-2H-benzo[e][1,2,4]thiadiazine-7-carboxamide 1,1-dioxide], under setting [1], the inhibition at 0.5 µM is above 50%. Still for that read-out and setting: in the case of `O=C(Nc1cc(F)c(F)c(F)c1)c1ccc2c(c1)S(=O)(=O)N([C@H]1CC[C@@H](O)CC1)C(=O)N2` [Example E87, cis-2-(4-hydroxycyclohexyl)-3-oxo-N-(3,4,5-trifluorophenyl)-3,4-dihydro-2H-benzo[e][1,2,4]thiadiazine-7-carboxamide 1,1-dioxide] it was above 50%.

Turning to `Cc1cc(C(=O)Nc2cc(F)c(F)c(F)c2)cc2c1NCNS2(=O)=O` [Example E88, 5-methyl-N-(3,4,5-trifluorophenyl)-3,4-dihydro-2H-benzo[e][1,2,4]thiadiazine-7-carboxamide 1,1-dioxide], the pEC50 is below 6.00. Take `Cc1cc(C(=O)Nc2cc(F)c(F)c(F)c2)cc2c1NC(c1nccs1)NS2(=O)=O` (stereo not drawn) [Example E89, 5-methyl-3-(thiazol-2-yl)-N-(3,4,5-trifluorophenyl)-3,4-dihydro-2H-benzo[e][1,2,4]thiadiazine-7-carboxamide 1,1-dioxide]: the inhibition at 1 µM under setting [1] is above 50%. Still for that read-out and setting: in the case of `N#Cc1cc(NC(=O)c2ccc3c(c2)S(=O)(=O)NC=N3)ccc1F` [Example E90, N-(3-cyano-4-fluorophenyl)-2H-benzo[e][1,2,4]thiadiazine-7-carboxamide 1,1-dioxide] it was below 50%. Consider `N#Cc1cc(NC(=O)c2ccc3c(c2)S(=O)(=O)NCN3)ccc1F` [Example E91, N-(3-cyano-4-fluorophenyl)-3,4-dihydro-2H-benzo[e][1,2,4]thiadiazine-7-carboxamide 1,1-dioxide], for which the inhibition at 1 µM under setting [1] was below 50%.

Consider `O=C(Nc1ccc(Cl)nc1)c1ccc2c(c1)S(=O)(=O)NCN2` [Example E92, N-(6-chloropyridin-3-yl)-3,4-dihydro-2H-benzo[e][1,2,4]thiadiazine-7-carboxamide 1,1-dioxide], for which the inhibition at 0.5 µM under setting [1] was below 50%.

On to `O=C(Nc1cc(F)c(F)c(F)c1)c1cnc2c(c1)S(=O)(=O)NCN2` [Example E93, N-(3,4,5-trifluorophenyl)-3,4-dihydro-2H-pyrido[2,3-e][1,2,4]thiadiazine-7-carboxamide 1,1-dioxide], for which the inhibition at 0.5 µM under setting [1] was below 50%.

On to `O=C(Nc1cc(F)c(F)c(F)c1)c1ccc2c(c1)S(=O)(=O)NCCN2` [Example E94, N-(3,4,5-trifluorophenyl)-2,3,4,5-tetrahydrobenzo[f][1,2,5]thiadiazepine-8-carboxamide 1,1-dioxide], for which the pEC50 is below 6.00.

Take `O=C(Nc1cc(F)c(F)c(F)c1)c1ccc2c(c1)S(=O)(=O)N[C@H]1CCC[C@@H]1N2` [Example E95, (3aS, 10aS)-N-(3,4,5-trifluorophenyl)-2,3,3a,4,10,10a-hexahydro-1H-benzo[f]cyclopenta[c][1,2,5]thiadiazepine-7-carboxamide 5,5-dioxide]: the inhibition at 0.5 µM under setting [1] was below 50%. Consider `O=C(Nc1cc(F)c(F)c(F)c1)c1ccc2c(c1)S(=O)(=O)N1CCCCC1CN2` (stereo not drawn) [Example E101, N-(3,4,5-trifluorophenyl)-1,3,4,11,12,12a-hexahydro-2H-benzo[f]pyrido[1,2-b][1,2,5]thiadiazepine-8-carboxamide 6,6-dioxide], for which, under setting [1], the inhibition at 1 µM was above 50%. On the same count and under the same terms, in the case of `CN1CC2CCCCN2S(=O)(=O)c2cc(C(=O)Nc3cc(F)c(F)c(F)c3)ccc21` (stereo not drawn) [Example E102, 11-methyl-N-(3,4,5-trifluorophenyl)-1,3,4,11,12,12a-hexahydro-2H-benzo[f]pyrido[1,2-b][1,2,5]thiadiazepine-8-carboxamide 6,6-dioxide] it was below 50%; in that of `O=C(Nc1cc(F)c(F)c(F)c1)c1ccc2c(c1)S(=O)(=O)N1CCCC[C@H]1CN2` [Example E103, (S)-N-(3,4,5-trifluorophenyl)-1,3,4,11,12,12a-hexahydro-2H-benzo[f]pyrido[1,2-b][1,2,5]thiadiazepine-8-carboxamide 6,6-dioxide], below 50%; in that of `O=C(Nc1cc(F)c(F)c(F)c1)c1ccc2c(c1)S(=O)(=O)N1CCCC[C@@H]1CN2` [Example E104, (R)-N-(3,4,5-trifluorophenyl)-1,3,4,11,12,12a-hexahydro-2H-benzo[f]pyrido[1,2-b][1,2,5]thiadiazepine-8-carboxamide 6,6-dioxide], above 50%. Same read-out and setting: in the case of `O=C(Nc1cc(F)c(F)c(F)c1)c1ccc2c(c1)S(=O)(=O)N1CC[C@@H](C1)N2` [Example E105, (5S)-N-(3,4,5-trifluorophenyl)-3,4,5,6-tetrahydro-2,5-methanobenzo[g][1,2,6]thiadiazocine-9-carboxamide 1,1-dioxide] it was below 50%; in that of `O=C(Nc1cc(F)c(F)c(F)c1)c1ccc2c(c1)S(=O)(=O)N1CCCC1CN2` (stereo not drawn) [Example E106, N-(3,4,5-trifluorophenyl)-1,2,3,10,11,11a-hexahydrobenzo[f]pyrrolo[1,2-b][1,2,5]thiadiazepine-7-carboxamide 5,5-dioxide], below 50%; in that of `O=C(Nc1cc(F)c(F)c(F)c1)c1ccc2c(c1)S(=O)(=O)N1CCC1CN2` (stereo not drawn) [Example E107, N-(3,4,5-trifluorophenyl)-1,9,10,10a-tetrahydro-2H-azeto[1,2-b]benzo[f][1,2,5]thiadiazepine-6-carboxamide 4,4-dioxide], below 50%.

Turning to `O=C(Nc1cc(F)c(F)c(F)c1)c1ccc2c(c1)S(=O)(=O)N1CCOCC1CN2` (stereo not drawn) [Example E108, N-(3,4,5-trifluorophenyl)-1,3,4,11,12,12a-hexahydrobenzo[f][1,4]oxazino[4,3-b][1,2,5]thiadiazepine-8-carboxamide 6,6-dioxide], the inhibition at 1 µM under setting [1] is below 50%. The same measure, in the same setting: under `O=C(Nc1cc(F)c(F)c(F)c1)c1ccc2c(c1)S(=O)(=O)n1ccnc1CN2` [Example E109, N-(3,4,5-trifluorophenyl)-10,11-dihydrobenzo[f]imidazo[1,2-b][1,2,5]thiadiazepine-7-carboxamide 5,5-dioxide] stands below 50%.

`O=C(Nc1ccc(F)c(F)c1)c1ccc2c(c1)S(=O)(=O)N1CCN2CC1` [Example E110, N-(3,4-difluorophenyl)-3,4-dihydro-2,5-ethanobenzo[f][1,2,5]thiadiazepine-8-carboxamide 1,1-dioxide]: the inhibition at 1 µM under setting [1] is below 50%. Regarding `O=C(Nc1cc(F)c(F)c(F)c1)c1ccc2c(c1)S(=O)(=O)N1CCCCC1CO2` (stereo not drawn) [Example E111, N-(3,4,5-trifluorophenyl)-1,2,3,4,12,12a-hexahydrobenzo[b]pyrido[1,2-e][1,4,5]oxathiazepine-8-carboxamide 6,6-dioxide], the inhibition at 1 µM under setting [1] is below 50%. Turning to `O=C(Nc1cc(F)c(F)c(F)c1)c1ccc2c(c1)S(=O)(=O)N1CCCC[C@@H]1CO2` [Example E112, (R)-N-(3,4,5-trifluorophenyl)-1,2,3,4,12,12a-hexahydrobenzo[b]pyrido[1,2-e][1,4,5]oxathiazepine-8-carboxamide 6,6-dioxide], the inhibition at 1 µM under setting [1] was below 50%. On the same count and under the same terms, under `O=C(Nc1cc(F)c(F)c(F)c1)c1ccc2c(c1)S(=O)(=O)N1CCCC[C@H]1CO2` [Example E113, (S)-N-(3,4,5-trifluorophenyl)-1,2,3,4,12,12a-hexahydrobenzo[b]pyrido[1,2-e][1,4,5]oxathiazepine-8-carboxamide 6,6-dioxide] stands below 50%.

Turning to `CC(C)(C)OC(=O)N1CCN2C(COc3ccc(C(=O)Nc4cc(F)c(F)c(F)c4)cc3S2(=O)=O)C1` (stereo not drawn) [Example E114, tert-butyl 8-((3,4,5-trifluorophenyl)carbamoyl)-3,4,12,12a-tetrahydrobenzo[b]pyrazino[1,2-e][1,4,5]oxathiazepine-2(1H)-carboxylate 6,6-dioxide], the inhibition at 1 µM under setting [1] was below 50%.

For the compound `O=C(Nc1cc(F)c(F)c(F)c1)c1ccc2c(c1)S(=O)(=O)N1CCNCC1CO2` (stereo not drawn) [Example E115, N-(3,4,5-trifluorophenyl)-1,2,3,4,12,12a-hexahydrobenzo[b]pyrazino[1,2-e][1,4,5]oxathiazepine-8-carboxamide 6,6-dioxide], the inhibition at 1 µM under setting [1] was below 50%.

On to `CC(=O)N1CCN2C(COc3ccc(C(=O)Nc4cc(F)c(F)c(F)c4)cc3S2(=O)=O)C1` (stereo not drawn) [Example E116, 2-acetyl-N-(3,4,5-trifluorophenyl)-1,2,3,4,12,12a-hexahydrobenzo[b]pyrazino[1,2-e][1,4,5]oxathiazepine-8-carboxamide 6,6-dioxide], for which the inhibition at 1 µM under setting [1] is below 50%.

On to `O=C(Nc1cc(F)c(F)c(F)c1)c1ccc2c(c1)S(=O)(=O)N1CC(C1)O2` [Example E117, N-(3,4,5-trifluorophenyl)-3,4-dihydro-2,4-methanobenzo[b][1,4,5]oxathiazepine-8-carboxamide 1,1-dioxide], for which, under setting [1], the inhibition at 1 µM is below 50%. On the same count and under the same terms, in the case of `O=C(Nc1cc(F)c(F)c(F)c1)c1ccc2c(c1)S(=O)(=O)N1CCC(C1)O2` (stereo not drawn) [Example E118, N-(3,4,5-trifluorophenyl)-4,5-dihydro-3H-2,5-methanobenzo[b][1,4,5]oxathiazocine-9-carboxamide 1,1-dioxide] it was below 50%. Same read-out and setting: in the case of `O=C(Nc1ccc(F)c(F)c1)c1ccc2c(c1)S(=O)(=O)NC(CO)N2` (stereo not drawn) [Example E119, N-(3,4-difluorophenyl)-3-(hydroxymethyl)-3,4-dihydro-2H-benzo[e][1,2,4]thiadiazine-7-carboxamide 1,1-dioxide] it was above 50%.

A word on the pEC50: it is the negative decadic logarithm of the EC50, by convention in mol/L.
